Among the data in ChEMBL document CHEMBL5104101, “Insights into the modular design of kinase inhibitors and application to Abl and Axl” (RSC Med Chem, 2022) are GI50, IC50 and inhibition values, retold here.

Test [1] relates to BaF3. In words: Cytotoxicity against mouse BaF3 cells stably expressing ABL wildtype assessed as cell growth inhibition incubated for 72 hrs by celltiter-glo luminescent cell viability assay. It is filed as functional. (Cellular ATP, detected with luciferase, serves as a proxy for viable cell number.)
In test [2] the target is Tyrosine-protein kinase ABL1 (Homo sapiens, UniProt P00519). In words: Inhibition of NanoLuc-tagged ABL1 wild type (unknown origin) expressed in HEK293 cells by NanoBRET TE assay. The test is classed as cell-based. (BRET reads energy transfer from a luciferase to a nearby fluorophore.)
The target in test [3] is Receptor-type tyrosine-protein kinase FLT3 (Homo sapiens) (UniProt P36888). In words: Inhibition of FLT3 (unknown origin) by Nano-syn mobility shift assay. As to conditions: concentration not given here.
Test [4] deals with Mitogen-activated protein kinase 11 (Homo sapiens) (UniProt Q15759). Nature of the test: Inhibition of MAPK11 (unknown origin) by Nano-syn mobility shift assay.
For test [5], the target named is High affinity nerve growth factor receptor (Homo sapiens) (UniProt P04629). Nature of the test: Inhibition of NTRK1 (unknown origin) by Nano-syn mobility shift assay. The settings on record: concentration not given here.
Test [6] deals with Angiopoietin-1 receptor (Homo sapiens) (UniProt Q02763). Nature of the test: Inhibition of TEK (unknown origin) by Nano-syn mobility shift assay. The settings on record: concentration not given here.
Test [7] has as its target Fibroblast growth factor receptor 1 (Homo sapiens) (UniProt P11362). In words: Inhibition of FGFR1 (unknown origin) by Nano-syn mobility shift assay.
Test [8] addresses Platelet-derived growth factor receptor alpha (Homo sapiens) (UniProt P16234). In words: Inhibition of PDFGRA (unknown origin) by Nano-syn mobility shift assay. The settings on record: concentration not given here.
Test [9] deals with MAP kinase-interacting serine/threonine-protein kinase 2 (Homo sapiens) (UniProt Q9HBH9). In words: Inhibition of MKNK2 (unknown origin) by Nano-syn mobility shift assay.
Test [10] deals with Tyrosine-protein kinase Fgr (Homo sapiens) (UniProt P09769). In words: Inhibition of FGR (unknown origin) by Nano-syn mobility shift assay.
The species entered for test [11] is Homo sapiens. In words: Inhibition of LYNB (unknown origin) by Nano-syn mobility shift assay. As to conditions: concentration not given here.
In test [12] the test system is BaF3. In words: Cytotoxicity against mouse BaF3 cells stably expressing ABL-T315I mutant assessed as cell growth inhibition incubated for 72 hrs by celltiter-glo luminescent cell viability assay. The test is classed as functional.
Test [13] concerns the target Tyrosine-protein kinase Lck (Homo sapiens) (UniProt P06239). Nature of the test: Inhibition of LCK (unknown origin) by Nano-syn mobility shift assay. The settings on record: concentration not given here.
Test [14] has as its target Tyrosine-protein kinase ABL2 (Homo sapiens) (UniProt P42684). Nature of the test: Inhibition of ABL2 (unknown origin) by Nano-syn mobility shift assay. The settings on record: concentration not given here.
In test [15] the target is MAP kinase-interacting serine/threonine-protein kinase 1 (Homo sapiens) (UniProt Q9BUB5). In words: Inhibition of MKNK1 (unknown origin) by Nano-syn mobility shift assay.
The species entered for test [16] is Homo sapiens. Nature of the test: Inhibition of LYNA (unknown origin) by Nano-syn mobility shift assay. As to conditions: concentration not given here.
The target in test [17] is Mitogen-activated protein kinase 14 (Homo sapiens) (UniProt Q16539). In words: Inhibition of MAPK14 (unknown origin) by Nano-syn mobility shift assay.
The test system of another test is K562. Nature of the test: Cytotoxicity against human K562 cells assessed as cell growth inhibition incubated for 72 hrs by celltiter-glo luminescent cell viability assay. It is filed as functional.
The target in test [18] is Ephrin type-A receptor 2 (Homo sapiens) (UniProt P29317). Nature of the test: Inhibition of EPH-A2 (unknown origin) by Nano-syn mobility shift assay.
The target of test [19] is RAF proto-oncogene serine/threonine-protein kinase (Homo sapiens) (UniProt P04049). In words: Inhibition of CRAF (unknown origin) by Nano-syn mobility shift assay.
For test [20], the target named is Fibroblast growth factor receptor 3 (Homo sapiens) (UniProt P22607). In words: Inhibition of FGFR3 (unknown origin) by Nano-syn mobility shift assay.
Test [21] has as its target Tyrosine-protein kinase receptor UFO (Homo sapiens, UniProt P30530). Nature of the test: Inhibition of AXL (unknown origin) using peptide substrate in presence of ATP by radiometric HotSpot assay.
Test [22] addresses Tyrosine-protein kinase receptor UFO (Homo sapiens) (UniProt P30530). Nature of the test: Inhibition of AXL (unknown origin) by Nano-syn mobility shift assay.
The target in test [23] is Vascular endothelial growth factor receptor 2 (Homo sapiens) (UniProt P35968). In words: Inhibition of KDR (unknown origin) by Nano-syn mobility shift assay.
The target of test [24] is Platelet-derived growth factor receptor beta (Homo sapiens) (UniProt P09619). In words: Inhibition of PDFGRB (unknown origin) by Nano-syn mobility shift assay.
Test [25] concerns the target Proto-oncogene tyrosine-protein kinase receptor Ret (Homo sapiens) (UniProt P07949). In words: Inhibition of RET (unknown origin) by Nano-syn mobility shift assay.
For test [26], the target named is Vascular endothelial growth factor receptor 3 (Homo sapiens) (UniProt P35916). Nature of the test: Inhibition of FLT4 (unknown origin) by Nano-syn mobility shift assay.
For test [27], the target named is Ephrin type-A receptor 8 (Homo sapiens) (UniProt P29322). In words: Inhibition of EPH-A8 (unknown origin) by Nano-syn mobility shift assay.
The target in test [28] is Discoidin domain-containing receptor 2 (Homo sapiens) (UniProt Q16832). Nature of the test: Inhibition of DDR2 (unknown origin) by Nano-syn mobility shift assay.
For test [29], the target named is Muscle, skeletal receptor tyrosine-protein kinase (Homo sapiens) (UniProt O15146). In words: Inhibition of MUSK (unknown origin) by Nano-syn mobility shift assay.
Test [30] addresses Vascular endothelial growth factor receptor 1 (Homo sapiens) (UniProt P17948). Nature of the test: Inhibition of FLT1 (unknown origin) by Nano-syn mobility shift assay.

Structures are written as SMILES. Active and inactive are the calls of the source. The rule behind the calls is not given here.

What is called GI50 is the concentration at which growth is held to half of that of the control. Usually IC50 stands for the concentration that inhibits the measured activity by half. A word on the inhibition: it is the share of the control response that was lost under treatment.

Sequence of Receptor-type tyrosine-protein kinase FLT3 (Homo sapiens) (P36888 whole entry): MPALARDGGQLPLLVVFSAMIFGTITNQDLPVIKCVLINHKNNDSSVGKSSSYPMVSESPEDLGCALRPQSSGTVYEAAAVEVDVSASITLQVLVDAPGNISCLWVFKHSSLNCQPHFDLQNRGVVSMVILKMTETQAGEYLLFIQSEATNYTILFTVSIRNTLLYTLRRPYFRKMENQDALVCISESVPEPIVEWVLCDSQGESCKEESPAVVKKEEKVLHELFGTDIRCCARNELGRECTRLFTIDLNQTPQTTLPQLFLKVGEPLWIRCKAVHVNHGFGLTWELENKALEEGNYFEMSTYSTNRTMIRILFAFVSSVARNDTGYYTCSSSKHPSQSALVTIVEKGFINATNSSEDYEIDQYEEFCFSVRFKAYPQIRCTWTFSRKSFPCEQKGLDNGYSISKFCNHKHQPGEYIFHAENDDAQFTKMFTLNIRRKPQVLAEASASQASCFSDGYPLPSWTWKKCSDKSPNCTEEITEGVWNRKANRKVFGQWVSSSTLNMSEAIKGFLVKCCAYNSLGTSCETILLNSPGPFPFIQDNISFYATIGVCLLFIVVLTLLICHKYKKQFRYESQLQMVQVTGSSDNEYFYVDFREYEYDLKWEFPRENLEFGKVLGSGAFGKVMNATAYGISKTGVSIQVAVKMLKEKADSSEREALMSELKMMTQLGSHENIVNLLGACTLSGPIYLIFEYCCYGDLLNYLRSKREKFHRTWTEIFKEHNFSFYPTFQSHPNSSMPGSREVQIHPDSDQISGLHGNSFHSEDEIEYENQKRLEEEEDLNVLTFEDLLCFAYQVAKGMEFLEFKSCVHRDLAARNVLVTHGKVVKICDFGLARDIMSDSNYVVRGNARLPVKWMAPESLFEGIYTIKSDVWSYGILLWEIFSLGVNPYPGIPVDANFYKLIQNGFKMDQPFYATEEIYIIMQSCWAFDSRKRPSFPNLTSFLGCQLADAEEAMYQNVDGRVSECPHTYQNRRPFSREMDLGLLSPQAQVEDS
Sequence of Tyrosine-protein kinase ABL2 (Homo sapiens) (P42684 whole entry): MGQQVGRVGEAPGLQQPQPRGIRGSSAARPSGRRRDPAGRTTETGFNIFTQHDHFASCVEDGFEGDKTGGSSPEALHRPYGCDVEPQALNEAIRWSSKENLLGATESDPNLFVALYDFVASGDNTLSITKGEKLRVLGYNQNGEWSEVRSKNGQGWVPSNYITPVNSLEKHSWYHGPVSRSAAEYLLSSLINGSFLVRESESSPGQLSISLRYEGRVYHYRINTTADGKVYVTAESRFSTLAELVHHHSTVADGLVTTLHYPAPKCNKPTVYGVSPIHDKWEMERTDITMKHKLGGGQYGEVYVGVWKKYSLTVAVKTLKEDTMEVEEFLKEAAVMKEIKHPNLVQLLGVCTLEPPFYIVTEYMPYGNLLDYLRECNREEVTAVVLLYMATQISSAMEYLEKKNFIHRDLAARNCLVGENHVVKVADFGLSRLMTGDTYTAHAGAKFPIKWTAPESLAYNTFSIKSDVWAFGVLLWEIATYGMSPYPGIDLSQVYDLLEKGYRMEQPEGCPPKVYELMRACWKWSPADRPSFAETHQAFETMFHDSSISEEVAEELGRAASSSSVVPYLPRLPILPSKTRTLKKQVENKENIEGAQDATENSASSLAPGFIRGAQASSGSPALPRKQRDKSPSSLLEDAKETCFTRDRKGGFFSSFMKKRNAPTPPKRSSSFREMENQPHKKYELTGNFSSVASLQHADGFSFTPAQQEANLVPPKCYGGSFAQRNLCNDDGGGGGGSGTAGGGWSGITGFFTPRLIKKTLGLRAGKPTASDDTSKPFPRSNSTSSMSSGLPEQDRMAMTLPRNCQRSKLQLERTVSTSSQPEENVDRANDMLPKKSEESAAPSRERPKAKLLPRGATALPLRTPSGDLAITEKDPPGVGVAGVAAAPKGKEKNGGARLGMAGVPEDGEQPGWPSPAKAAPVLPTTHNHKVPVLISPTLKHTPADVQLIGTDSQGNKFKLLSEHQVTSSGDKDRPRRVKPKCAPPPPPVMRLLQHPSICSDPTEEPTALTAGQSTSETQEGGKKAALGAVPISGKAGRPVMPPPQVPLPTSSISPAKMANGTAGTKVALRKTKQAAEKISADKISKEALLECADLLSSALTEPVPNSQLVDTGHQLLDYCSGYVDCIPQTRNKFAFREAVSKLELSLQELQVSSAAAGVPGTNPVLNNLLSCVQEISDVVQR
Sequence of Tyrosine-protein kinase Lck (Homo sapiens) (P06239 2-509 limits assumed): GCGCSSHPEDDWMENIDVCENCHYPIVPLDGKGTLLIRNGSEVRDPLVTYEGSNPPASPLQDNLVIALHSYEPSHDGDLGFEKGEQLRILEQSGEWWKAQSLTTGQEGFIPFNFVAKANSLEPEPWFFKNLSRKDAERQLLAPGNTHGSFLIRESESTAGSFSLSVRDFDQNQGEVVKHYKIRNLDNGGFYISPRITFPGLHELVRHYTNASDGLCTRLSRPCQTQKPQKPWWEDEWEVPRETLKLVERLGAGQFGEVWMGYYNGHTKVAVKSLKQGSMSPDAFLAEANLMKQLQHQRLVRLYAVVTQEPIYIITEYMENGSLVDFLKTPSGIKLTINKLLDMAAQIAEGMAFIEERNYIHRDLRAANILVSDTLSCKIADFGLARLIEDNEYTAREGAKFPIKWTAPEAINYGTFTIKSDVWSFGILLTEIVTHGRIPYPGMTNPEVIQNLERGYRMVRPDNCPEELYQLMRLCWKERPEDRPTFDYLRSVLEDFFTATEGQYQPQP
Sequence of MAP kinase-interacting serine/threonine-protein kinase 2 (Homo sapiens) (Q9HBH9 whole entry, looked up): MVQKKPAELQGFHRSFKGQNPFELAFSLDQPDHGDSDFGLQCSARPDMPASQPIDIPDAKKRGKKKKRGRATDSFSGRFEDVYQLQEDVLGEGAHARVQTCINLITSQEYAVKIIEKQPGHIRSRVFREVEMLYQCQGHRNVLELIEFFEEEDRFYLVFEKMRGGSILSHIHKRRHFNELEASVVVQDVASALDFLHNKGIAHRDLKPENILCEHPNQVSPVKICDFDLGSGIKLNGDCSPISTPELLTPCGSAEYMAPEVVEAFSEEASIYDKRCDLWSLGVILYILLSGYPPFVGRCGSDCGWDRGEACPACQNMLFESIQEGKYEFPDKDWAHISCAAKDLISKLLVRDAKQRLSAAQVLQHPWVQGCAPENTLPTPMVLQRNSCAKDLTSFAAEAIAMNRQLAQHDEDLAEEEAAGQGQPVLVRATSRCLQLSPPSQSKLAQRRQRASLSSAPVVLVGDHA
Sequence of RAF proto-oncogene serine/threonine-protein kinase (Homo sapiens) (P04049 whole entry): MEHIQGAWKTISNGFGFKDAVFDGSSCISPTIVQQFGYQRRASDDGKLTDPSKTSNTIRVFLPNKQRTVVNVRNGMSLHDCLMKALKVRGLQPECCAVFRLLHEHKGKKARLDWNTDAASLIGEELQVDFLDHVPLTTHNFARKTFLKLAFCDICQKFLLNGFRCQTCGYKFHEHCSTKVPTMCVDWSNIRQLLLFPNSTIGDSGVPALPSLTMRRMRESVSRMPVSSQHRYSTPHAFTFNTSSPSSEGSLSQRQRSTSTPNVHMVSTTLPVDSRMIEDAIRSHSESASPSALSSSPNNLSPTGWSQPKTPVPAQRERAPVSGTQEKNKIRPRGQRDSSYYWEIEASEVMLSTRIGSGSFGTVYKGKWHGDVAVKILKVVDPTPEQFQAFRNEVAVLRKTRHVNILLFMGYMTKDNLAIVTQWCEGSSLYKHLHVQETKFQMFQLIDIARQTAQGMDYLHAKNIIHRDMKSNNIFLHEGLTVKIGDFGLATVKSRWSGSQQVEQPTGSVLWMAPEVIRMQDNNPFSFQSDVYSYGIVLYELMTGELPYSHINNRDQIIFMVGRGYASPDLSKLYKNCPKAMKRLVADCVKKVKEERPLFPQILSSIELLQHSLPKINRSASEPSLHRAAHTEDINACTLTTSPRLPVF
Sequence of Platelet-derived growth factor receptor alpha (Homo sapiens) (P16234 whole entry): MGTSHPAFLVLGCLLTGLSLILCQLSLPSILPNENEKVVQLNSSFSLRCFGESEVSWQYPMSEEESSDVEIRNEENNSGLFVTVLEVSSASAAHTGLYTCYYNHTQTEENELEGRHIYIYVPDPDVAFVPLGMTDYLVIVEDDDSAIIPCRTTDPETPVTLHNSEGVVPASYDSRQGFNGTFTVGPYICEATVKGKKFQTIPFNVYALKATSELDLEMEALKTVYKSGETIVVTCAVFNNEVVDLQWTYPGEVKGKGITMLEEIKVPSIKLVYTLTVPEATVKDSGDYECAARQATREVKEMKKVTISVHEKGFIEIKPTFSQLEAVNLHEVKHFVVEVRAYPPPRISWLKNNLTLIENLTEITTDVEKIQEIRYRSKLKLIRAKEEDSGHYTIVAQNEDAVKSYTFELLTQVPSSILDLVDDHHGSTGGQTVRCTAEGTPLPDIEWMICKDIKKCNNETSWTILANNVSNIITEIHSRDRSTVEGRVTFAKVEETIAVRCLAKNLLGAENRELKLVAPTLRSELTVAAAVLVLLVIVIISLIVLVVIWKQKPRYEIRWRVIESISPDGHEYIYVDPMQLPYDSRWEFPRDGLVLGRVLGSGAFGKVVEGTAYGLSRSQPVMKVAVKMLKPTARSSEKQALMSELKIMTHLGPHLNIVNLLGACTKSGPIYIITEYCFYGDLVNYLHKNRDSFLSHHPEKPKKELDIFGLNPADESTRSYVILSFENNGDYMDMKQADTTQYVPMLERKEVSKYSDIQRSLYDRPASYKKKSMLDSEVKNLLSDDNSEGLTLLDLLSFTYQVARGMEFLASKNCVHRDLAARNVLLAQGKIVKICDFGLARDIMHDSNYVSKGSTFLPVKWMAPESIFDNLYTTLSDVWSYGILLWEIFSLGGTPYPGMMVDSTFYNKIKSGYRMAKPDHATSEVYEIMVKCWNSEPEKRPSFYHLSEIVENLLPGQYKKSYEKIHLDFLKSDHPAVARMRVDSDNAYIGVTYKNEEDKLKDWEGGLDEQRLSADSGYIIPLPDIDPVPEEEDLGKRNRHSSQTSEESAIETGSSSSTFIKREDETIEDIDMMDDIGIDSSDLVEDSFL

In the case of `CN1CCN(Cc2ccc(NC(=O)Nc3ccc(Oc4ccc5ncncc5c4)cc3)cc2C(F)(F)F)CC1`, the 50% growth inhibitory concentration (GI50) in the test with BaF3 [1] is 83 nM; with BaF3 [12], 117 nM; in the test with K562, 2.3 nM. In test [2], this compound yielded an IC50 of 15.7 nM. Moreover, the inhibition (in test [3]; in test [5]; in [6]; in test [8]; in the test listed under Homo sapiens [11]; in [13]) was above 50% throughout. The inhibition (in test [14]; in the test listed under Homo sapiens [16]) was above 50% each time. The inhibition result in [4], in test [7], in test [9], in [10], in test [15] and in test [17] was “Active” each time. For the same compound, the inhibition result in test [18] is “Active”.
In the case of `CC(C)(C)c1cc(NC(=O)Nc2ccc(Oc3ccc4ncccc4c3)cc2)n(-c2ccc3ncccc3c2)n1`, the GI50 in the test on BaF3 [1] amounted to 164 nM; in the test with BaF3 [12] it was 801 nM; with K562, 13 nM. The inhibition result in test [19], in test [20], in [22] and in test [23] was “Active” each time. Besides, the IC50 in [2] is 345 nM; in test [21], 12 nM. Besides, the inhibition (in test [3]; in [5]; in test [6]; in test [8]; in the test filed under Homo sapiens [11]; in test [13]) was above 50% in each case. For the same compound, the inhibition (in test [14]; in the test listed under Homo sapiens [16]) was above 50% in each case.
Consider `CC(C)(C)c1cc(NC(=O)Nc2ccc(Oc3ccc4cccnc4c3)cc2)n(-c2ccc3ncccc3c2)n1`, for which the values for the GI50 in the test on BaF3 [1], in the test with BaF3 [12] and in the test with K562 were above 5000 nM, above 10000 nM and 239 nM, respectively. Moreover, the inhibition result in test [19] and in test [23] was “Active” each time. In test [2], this compound showed an IC50 of 719 nM.
As for `CN1CCN(Cc2ccc(NC(=O)Nc3ccc(Oc4ccc5ncccc5c4)cc3)cc2C(F)(F)F)CC1`, the GI50 came to 36 nM in the test with BaF3 [1], 162 nM with BaF3 [12] and 6.9 nM with K562. In addition, the inhibition result in test [19], in [4], in [24], in test [25], in [26] and in test [9] was “Active” throughout. In addition, the inhibition result in [27], in [28], in test [29], in test [30], in test [15] and in [17] was “Active” throughout. Besides, in test [23], the inhibition entry was “Active”. Also, the IC50 in [2] was determined as 38.3 nM. For the same compound, the inhibition (in test [3]; in [5]; in test [6]; in test [8]; in the test filed under Homo sapiens [11]; in test [13]) was above 50% throughout. For the same compound, the inhibition (in test [14]; in the test listed under Homo sapiens [16]) was above 50% in each case.
Consider `CN1CCN(Cc2ccc(NC(=O)Nc3ccc(Oc4ccc5cccnc5c4)cc3)cc2C(F)(F)F)CC1`, for which the GI50 in the test on BaF3 [1] was above 10000 nM; with BaF3 [12] it was above 10000 nM; in the test on K562 it was 451 nM. The inhibition result in [19], in test [4], in test [9], in [15], in test [17] and in [23] was “Active” throughout. For the same compound, half-maximal inhibition in [2] (IC50) was put at 637 nM.
Turning to `CC(C)(C)c1cc(NC(=O)Nc2ccc(Oc3ccc4ncncc4c3)cc2)n(-c2ccc3ncccc3c2)n1`, the GI50 in the test with BaF3 [1] is 66 nM; in the test with BaF3 [12], 269 nM; in the test with K562 it was 4 nM. Moreover, the inhibition in [3], in [5], in test [6], in [8], in test [13] and in [14] was above 50% throughout. For the same compound, the inhibition entry in test [7], in test [10], in test [20], in [22] and in test [18] was “Active” throughout.
